Test results: PubChem BioAssay (NCI)
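Dose response: 5 concentrations. Exposure: 48 h. Format: 96-well plates. Endpoint: linear interpolation; highest concentration if not reached. At the GI50, growth is halved. Definition used: TGI = concentration required for complete inhibition of growth.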

Legend:
Experiment in all cases: DTP human tumour cell line panel, 48 h; in the data active = GI50 below about 0.43 µM; inactive = the rest
[1] = test system: 786-0 renal
[2] = test system: A498 renal
[3] = test system: A549 NSCLC
[4] = test system: ACHN renal
[5] = test system: BT-549 breast
[6] = test system: CAKI-1 renal
[7] = test system: CCRF-CEM leukemia
[8] = test system: COLO 205 colon
[9] = test system: DU-145 prostate
[10] = test system: EKVX NSCLC
[11] = test system: HCC-2998 colon
[12] = test system: HCT-116 colon
[13] = test system: HCT-15 colon
[14] = test system: HL-60(TB) leukemia
[15] = test system: HOP-62 NSCLC
[16] = test system: HOP-92 NSCLC
[17] = test system: HS 578T breast
[18] = test system: HT29 colon
[19] = test system: IGROV1 ovarian
[20] = test system: K-562 leukemia
[21] = test system: KM12 colon
[22] = test system: M14 melanoma
[23] = test system: MALME-3M melanoma
[24] = test system: MCF7 breast
[25] = test system: MDA-MB-231 breast
[26] = test system: MDA-MB-435
[27] = test system: MOLT-4 leukemia
[28] = test system: NCI-H226 lung
[29] = test system: NCI-H23 lung
[30] = test system: NCI-H460 lung
[31] = test system: NCI-H522 lung
[32] = test system: NCI/ADR-RES ovarian
[33] = test system: OVCAR-4 ovarian
[34] = test system: OVCAR-5 ovarian
[35] = test system: OVCAR-8 ovarian
[36] = test system: PC-3 prostate
[37] = test system: RPMI-8226 leukemia
[38] = test system: RXF 393 renal
[39] = test system: SF-268 CNS
[40] = test system: SF-295 CNS
[41] = test system: SF-539 CNS
[42] = test system: SK-MEL-2 melanoma
[43] = test system: SK-MEL-28 melanoma
[44] = test system: SK-MEL-5 melanoma
[45] = test system: SK-OV-3 ovarian
[46] = test system: SN12C renal
[47] = test system: SNB-19 CNS
[48] = test system: SR leukemia
[49] = test system: SW-620 colon
[50] = test system: T-47D breast
[51] = test system: TK-10 renal
[52] = test system: U251 CNS
[53] = test system: UACC-257 melanoma
[54] = test system: UACC-62 melanoma
[55] = test system: UO-31 renal

O=[N+]([O-])c1ccc(-c2nnc(SCc3ccc(O)c4ncccc34)n2-c2ccccc2)cc1
4690 nM: TGI [25]
1820 nM: TGI [42]
598 nM: TGI [16]
> 100000 nM: TGI [3] | TGI [4] | TGI [5] | TGI [6] | TGI [7] | TGI [9] | TGI [10] | TGI [11] | TGI [12] | TGI [13] | TGI [15] | TGI [17] | TGI [18] | TGI [19] | TGI [20] | TGI [21] | TGI [22] | TGI [24] | TGI [26] | TGI [27] | TGI [28] | TGI [29] | TGI [30] | TGI [32] | TGI [33] | TGI [34] | TGI [35] | TGI [36] | TGI [37] | TGI [38] | TGI [39] | TGI [41] | TGI [43] | TGI [46] | TGI [47] | TGI [48] | TGI [49] | TGI [50] | TGI [51] | TGI [52] | TGI [54] | TGI [55]
5040 nM: TGI [40]
6350 nM: TGI [45]
7020 nM: TGI [8]
8450 nM: TGI [23]
17000 nM: TGI [2]
inactive: GI50 [1] 1360 nM | GI50 [2] 2300 nM | GI50 [4] 2030 nM | GI50 [6] 2410 nM | GI50 [7] 507 nM | GI50 [8] 2510 nM | GI50 [9] 442 nM | GI50 [10] 1430 nM | GI50 [11] 1400 nM | GI50 [13] 1050 nM | GI50 [14] 447 nM | GI50 [15] 990 nM | GI50 [18] 3190 nM | GI50 [19] 1560 nM | GI50 [20] 447 nM | GI50 [21] 585 nM | GI50 [22] 493 nM | GI50 [23] 1170 nM | GI50 [25] 1050 nM | GI50 [27] 777 nM | GI50 [28] 4300 nM | GI50 [29] 433 nM | GI50 [32] 7350 nM | GI50 [33] 2120 nM | GI50 [34] 3350 nM | GI50 [37] 695 nM | GI50 [38] 651 nM | GI50 [40] 444 nM | GI50 [43] 715 nM | GI50 [45] 1760 nM | GI50 [49] 479 nM | GI50 [50] 834 nM | GI50 [51] 2860 nM | GI50 [53] 1380 nM | GI50 [54] 2060 nM | GI50 [55] 1950 nM
active: GI50 [3] 410 nM | GI50 [5] 175 nM | GI50 [12] 127 nM | GI50 [16] 69 nM | GI50 [17] 312 nM | GI50 [24] 325 nM | GI50 [26] 329 nM | GI50 [30] 229 nM | GI50 [31] 253 nM | GI50 [35] 240 nM | GI50 [36] 114 nM | GI50 [39] 360 nM | GI50 [41] 377 nM | GI50 [42] 314 nM | GI50 [44] 363 nM | GI50 [46] 293 nM | GI50 [47] 254 nM | GI50 [48] 420 nM | GI50 [52] 191 nM
> 26100 nM: TGI [53]
> 29600 nM: TGI [31]
1970 nM: TGI [44]
> 84200 nM: TGI [1]
> 22900 nM: TGI [14]
